According to patent US20150031743A1, “CELL TRANSFECTING FORMULATIONS OF SMALL INTERFERING RNA, RELATED COMPOSITIONS AND METHODS OF MAKING AND USE” (NOVARTIS VACCINES AND DIAGNOSTICS, INC., priority 2003, published 2015):

Tests used:
Akt1 mRNA = experiment: siRNA inhibition of Akt1 mRNA in MDA435 breast cancer cells (Example 1, FIG. 2); type: cell-based; conditions: presence or absence of serum, Akt1 message normalized to average of HPRT and GUSB
Method: (§1) For each transfection mixture (which are examples of compositions in accordance with the present invention), a lipitoid or lipitoid/cholesteroid combination delivery vehicle was prepared to a working concentration of 0.5 mM in water and mixed to yield a uniform solution. The siRNA was prepared to a working concentration of 20 μM in buffer supplied with the siRNAs. In this example, the siRNAs were for Akt1 mRNA and had the sequence […] (SEQ ID No: 1) with two 2′ O-methyl UU (RNA) nucleotide 3′-overhangs and phosphodiester links throughout (available from Integrated DNA Technologies). The siRNA was diluted in OptiMEM™ (Gibco/BRL), in a microfuge tube, to 1 μM, or approximately 15 μg oligo/ml of OptiMEM™. In a separate microfuge tube, vehicle, typically in the amount of about 3.75 nmol vehicle/100 pmol siRNA, was diluted into the same volume of OptiMEM™ used to dilute the siRNA. […] Note that the exact ratio of siRNA to vehicle must be determined empirically for each cell type, but generally is about this amount. The diluted siRNA was immediately added to the diluted vehicle and mixed by pipetting up and down. The mixture was allowed to incubate at room temperature for 10 minutes.
Cells were plated on tissue culture dishes one day in advance of transfection, in growth media with serum, to yield a density at transfection of 60-90%. […]

firefly luciferase = experiment: Loss of luciferase activity after siRNA transfection, Promega Dual-Luciferase Reporter Assay (Example 2, FIG. 3); type: cell-based; conditions: MDA231 stably expressing luciferase, control non-transfected cell line
Method: as §1
Cells were plated on tissue culture dishes one day in advance of transfection, in growth media with serum, to yield a density at transfection of 60-90%. The siRNA/vehicle mixture was added to the cells immediately after mixing and incubation, to a final concentration of 50-100 nM siRNA in half the normal growth medium volume. Cells were incubated with the transfection mixture at 37° C., 5% CO2 for 4-24 hours. […]
Transfection mixtures were prepared using siRNA against firefly luciferase (CGUACGCGGAAUACUUCGA (SEQ ID No: 2); from Elbashir et al., Nature, 411, 494 (2001)) and several different delivery vehicles in accordance with the present invention as described herein (L1, L2, L1/C1, L4 1L1/3C1) substantially as described in Example 1. Luciferase activity was quantified with the Promega Dual-Luciferase Reporter Assay System according to package directions. […]

Substance | Akt1 expression after transfection of siRNA directed against Akt1 mRNA (Akt1 mRNA) | luciferase activity after transfection of siRNA against luciferase (firefly luciferase)
DMPE(NaeNiaNia)3 [Lipitoid L2] | loss of Akt1 expression | substantially reduced
DMPE(NaeNmpeNmpe)3 [Lipitoid L1] | – | substantially reduced
NddNol(NaeNmpeNmpe)3 [Lipitoid L4] | – | substantially reduced
NtdNhd(NaeNmpeNmpe)3 [Lipitoid L3] | loss of Akt1 expression | –
